In series [1] the test system is human bone marrow stromal cells. The following applies: 10 μmol/L, 72 h.
Protocol: 2×10^4 Stromal cells were plated into each well of flat-bottomed 96-well plates and cultured until confluent. On day 1 of the assay, ALL cells were resuspended in RPMI-1640 medium, 10% heat-inactivated FBS, glutamine (1×) and sodium pyruvate (1×). 3×10^5 ALL cells were added to each well of stroma-coated plates. […] SS1P (50 ng/mL), an antimesothelin Pseudomonas immunotoxin, was used as a negative control. The cytotoxicity of dexamethasone (10 μmol/L) was also tested in this assay. Cells were incubated for a further 72 h in a humidified atmosphere at 37° C. with 5% CO2.
At the end of the assay, the stromal cells were incubated with WST-1.
Series [2] concerns B-lineage ALL cells. In words: cells. The following applies: Homo sapiens.
Description: Blood and bone marrow samples were obtained from 35 patients with B-lineage ALL (Table SI) treated at the National Cancer Institute (NCI), St Jude Children's Research Hospital (SJCRH) or Johns Hopkins Hospital (JHH) with informed consent. The majority (n=22) were obtained from individuals with multiply relapsed ALL who were referred to the NCI for Phase I clinical trial participation. Thirteen patient samples from initial diagnosis were randomly selected from those available in the tumor banks at SJCRH and JHH. Thirty-three cases were characterized as pre-B ALL by flow cytometry and two as Burkitt-type/mature B-cell ALL. In all cases, >80% blasts expressed CD19 and CD22 antigens by flow cytometry. Cells were cryopreserved in RPMI-1640 medium with 10% fetal bovine serum (FBS) and 10% dimethyl sulfoxide.
Briefly, human bone marrow stromal cells that had been immortalized by telomerase transfection (developed at St Jude Children's Research Hospital) were cultured in RPMI-1640 medium (Invitrogen, Carlsbad, Calif., USA) with 10% fetal calf serum (Sigma-Aldrich, St Louis, Mo., USA). 2×10^4 Stromal cells were plated into each well of flat-bottomed 96-well plates and cultured until confluent. On day 1 of the assay, ALL cells were resuspended in RPMI-1640 medium, 10% heat-inactivated FBS, glutamine (1×) and sodium pyruvate (1×). 3×10^5 ALL cells were added to each well of stroma-coated plates. […] SS1P (50 ng/mL), an antimesothelin Pseudomonas immunotoxin, was used as a negative control. The cytotoxicity of dexamethasone (10 μmol/L) was also tested in this assay. Cells were incubated for a further 72 h in a humidified atmosphere at 37° C. with 5% CO2.
The cells were harvested by vigorous pipetting, transferred to Falcon tubes (Cat. No. 352052; BD Biosciences, San Jose, Calif., USA) and labelled with mouse anti-human CD19 antibody conjugated to fluorescein isothiocyanate (Cat. No. 555412; BD Pharmingen, San Jose, Calif., USA). […] The cells were analysed with a FACScalibur flow cytometer in combination with CellQuest (Becton Dickinson, Franklin Lakes, N.J., USA) and FlowJo software (Tree Star Inc., Ashland, Oreg., USA).
Viability was assessed by setting gates based on the light scatter properties of the blasts. Due to spontaneous cell death, the relative percentage of viable cells at the end of the assay was calculated using the following formula: (no. of CD19^+ viable cells recovered in test well/no. of CD19^+ viable cells in untreated well×100). […]
An exact Wilcoxon rank sum test was used to determine the statistical significance of the difference in unpaired observations between two groups of pediatric patients. […] Correlations between parameters were evaluated using Spearman rank correlation analysis.

Like-named read-outs stand apart in the source and are kept apart here.

Take `C[C@@H]1C[C@H]2[C@@H]3CCC4=CC(=O)C=C[C@]4(C)[C@@]3(F)[C@@H](O)C[C@]2(C)[C@@]1(O)C(=O)CO` [dexamethasone, Dexamethasone]: the “stromal cells compared to untreated controls (WST-1)” value in series [1] is “no difference”. Further, the viability at 10 µM in series [2] (72 h, read-out: percentage of viable ALL cells, range, 10 μmol/l, 72 h) was 4 to 158%; in series [2] (read-out: percentage of viable ALL cells, median, 10 μmol/l, ALL samples from diagnosis), 29%; in series [2] (read-out: percentage of viable ALL cells, median, 10 μmol/l, all samples) it was 40%; in series [2] (read-out: percentage of viable ALL cells, median, 10 μmol/l, relapse samples), 42%.

Source of the values: patent US20120177567A1, “Methods of Treating Pediatric Acute Lymphoblastic Leukemia with an Anti-CD22 Immunotoxin” (priority 2010, published 2012).
